ChEMBL document CHEMBL1155151, “First occurrence of an Escherichia coli clinical isolate producing the VIM-1/VIM-2 hybrid metallo-beta-lactamase VIM-12” (2007)
Values after ≈ are worked out from the molar mass of the structure shown.

What was measured:
Format in all cases: functional
Escherichia coli [1] = assay: Antibacterial activity against metallo-beta-lactamase VIM12 expressing Escherichia coli 28 isolate from decubitus ulcer infection patient by Etest
Escherichia coli [2] = assay: Antibacterial activity against Escherichia coli 26R793 by Etest
Escherichia coli [3] = assay: Antibacterial activity against Escherichia coli transconjugant carrying pEC28 isolate eby Etest

Structure (SMILES)	MIC (Escherichia coli [1])	MIC (Escherichia coli [2])	MIC (Escherichia coli [3])
C[C@@H](O)[C@H]1C(=O)N2C(C(=O)O)=C(S[C@@H]3CN[C@H](C(=O)Nc4cccc(C(=O)O)c4)C3)[C@H](C)[C@H]12 [ERTAPENEM]	0.5 µg/mL (≈ 1.05 µM)	0.064 µg/mL (≈ 0.135 µM)	0.094 µg/mL (≈ 0.198 µM)
CN(C)[C@@H]1C(O)=C(C(N)=O)C(=O)[C@@]2(O)C(O)=C3C(=O)c4c(O)cccc4[C@@](C)(O)[C@H]3C[C@@H]12 [TETRACYCLINE]	> 256 µg/mL	1 µg/mL (≈ 2.25 µM)	1 µg/mL (≈ 2.25 µM)
CC(C)(O/N=C(\C(=O)N[C@@H]1C(=O)N2C(C(=O)[O-])=C(C[n+]3ccccc3)CS[C@H]12)c1csc(N)n1)C(=O)O [CEFTAZIDIME]	> 256 µg/mL	0.75 µg/mL (≈ 1.37 µM)	4 µg/mL (≈ 7.32 µM)
O=C(O)c1cn(C2CC2)c2cc(N3CCNCC3)c(F)cc2c1=O [CIPROFLOXACIN]	0.047 µg/mL (≈ 0.142 µM)	0.047 µg/mL (≈ 0.142 µM)	0.047 µg/mL (≈ 0.142 µM)
CO[C@@]1(NC(=O)Cc2cccs2)C(=O)N2C(C(=O)O)=C(COC(N)=O)CS[C@@H]21 [CEFOXITIN]	> 256 µg/mL	8 µg/mL (≈ 18.7 µM)	32 µg/mL (≈ 74.9 µM)
CO/N=C(\C(=O)N[C@@H]1C(=O)N2C(C(=O)[O-])=C(C[N+]3(C)CCCC3)CS[C@H]12)c1csc(N)n1 [CEFEPIME]	12 µg/mL (≈ 25 µM)	0.094 µg/mL (≈ 0.196 µM)	1 µg/mL (≈ 2.08 µM)
C[C@@H](O)[C@H]1C(=O)N2C(C(=O)O)=C(S[C@@H]3CN[C@H](C(=O)N(C)C)C3)[C@H](C)[C@H]12 [MEROPENEM]	0.25 µg/mL (≈ 0.652 µM)	0.032 µg/mL (≈ 0.0834 µM)	0.023 µg/mL (≈ 0.06 µM)
C[C@@H](O)[C@H]1C(=O)N2C(C(=O)O)=C(SCCNC=N)C[C@H]12 [IMIPENEM ANHYDROUS]	1 µg/mL (≈ 3.34 µM)	0.5 µg/mL (≈ 1.67 µM)	
CC1(C)S[C@@H]2[C@H](NC(=O)[C@H](N)c3ccc(O)cc3)C(=O)N2[C@H]1C(=O)O [AMOXICILLIN]	> 256 µg/mL	4 µg/mL (≈ 10.9 µM)	32 µg/mL (≈ 87.6 µM)
NCC[C@H](O)C(=O)N[C@@H]1C[C@H](N)[C@@H](O[C@H]2O[C@H](CN)[C@@H](O)[C@H](O)[C@H]2O)[C@H](O)[C@H]1O[C@H]1O[C@H](CO)[C@@H](O)[C@H](N)[C@H]1O [AMIKACIN]	128 µg/mL (≈ 219 µM)	2 µg/mL (≈ 3.42 µM)	48 µg/mL (≈ 82 µM)
C[C@H]1[C@H](NC(=O)/C(=N\OC(C)(C)C(=O)O)c2csc(N)n2)C(=O)N1S(=O)(=O)O [AZTREONAM]	1 µg/mL (≈ 2.3 µM)	0.094 µg/mL (≈ 0.216 µM)	0.5 µg/mL (≈ 1.15 µM)
CO/N=C(\C(=O)N[C@@H]1C(=O)N2C(C(=O)O)=C(COC(C)=O)CS[C@H]12)c1csc(N)n1 [CEFOTAXIME]	> 32 µg/mL	0.094 µg/mL (≈ 0.206 µM)	8 µg/mL (≈ 17.6 µM)
